# According to US7238469B2, “Carbon monoxide improves outcomes in tissue and organ transplants and suppresses apoptosis” (priority 2001, dated 2007):
# System: βTC3 cells
# Experiment: TNF-α mediated apoptosis of β-gal transfected βTC3 cells (percentage of viable cells)
# Type: cell-based, murine
# Experimental: The murine insulinoma cell line βTC3 (DSMZ, Braunschweig, Germany) was cultured in Dulbecco's Modified Eagle's Medium (DMEM) (Life Technologies, Grand Island, N.Y., USA) supplemented with 2 mM L-glutamine, 100 U/ml penicillin G, 100 U/ml streptomycin and 10% Fetal Calf Serum (FCS) (Life Technologies) and incubated in humidified 5% CO2/95% air at 37° C. This murine β-cell line, derived from transgenic mice carrying a hybrid insulin-promoter simian virus 40 tumor antigen, is known to maintain the features of differentiated β-cells for about 50 passages in culture. […] Compared to other frequently used transformed β-cell lines such as RIN-m5F and HIT, levels of secreted insulin are closer to normal β-cells in the βTC3 cell line. Thus, these cells are useful for studying β-cell regulation and gene expression (D'Ambra et al., Endocrinology 726:2815–22, 1990).
# βTC3 were seeded at 3×10^5 cells in 16 mm wells and transfected 15 to 20 hours later using Lipofectamine plus™ reagents (Life Technologies) according to the manufacturer's instructions. Total DNA was maintained constant using empty pcDNA3 vector. The percentage of viable cells was assessed by normalizing the percentage of viable cells of each DNA preparation to the number of control-transfected cells without the apoptotic stimulus (100% viability) (Soares et al., Nature Med. 4:1073–1077, 1998; Sato et al., J. Immunol. 166:4185–4194, 2001).
# Murine recombinant TNF-α (R&D Systems) was dissolved in PBS with 1% bovine serum albumin and added to the culture medium (17.5 ng/ml=500 U) 24 hours after transfection. The caspase-3 inhibitor Z-DEVD-FMK and the caspase-8 inhibitor IETD-CHO (Calbiochem, San Diego, Calif.) were dissolved in dimethyl sulphoxide (DMSO, Sigma) and added to the culture medium (10 μM and 1 μM respectively) two hours before treatment with TNF-α. Tin protoporphyrin (SnPPIX) (Porphyrin Products, Logan, Utah) was dissolved (10 mM) in 100 mM NaOH and added 6 hours after transfection to the culture medium (50 μM). The guanylyl cyclase inhibitor 1H[1,2,4]oxadiazolo[4,3-α]quinoxalin-1 (ODQ; Calbiochem) was dissolved in DMSO and added to the culture medium (100 μM) 6 hours after transfection. The cGMP analogue 8-bromoguanosine-3′-5′-cyclic-monophosphate (8-Br-cGMP) (Sigma) was dissolved in water and added to the culture medium (10 μM) 30 minutes before induction of apoptosis. The protein kinase G inhibitor KT5823 (Calbiochem) was dissolved in DMSO and added to the culture medium (1.6 μM) 6 hours after transfection.
# Cells and islets were exposed to 1% carbon monoxide in compressed air balanced with 5% CO2, as described elsewhere (see, e.g., Otterbein et al., Nature Med. 6:422–428, 2000). Islets were incubated in RPMI medium pre-saturated with carbon monoxide (4° C. overnight, 1% CO, 5% CO2) for two hours at 37° C. while treatment with 1% CO, 5% CO2 was continued.
structure (smiles),measurement,setting,value
"Nc1nc2c(nc(Br)n2[C@@H]2O[C@@H]3COP(=O)(O)O[C@H]3[C@H]2O)c(=O)[nH]1 [8-Br-cGMP, 8-bromoguanosine-3′-5′-cyclic-monophosphate]",effect on βTC3 apoptosis,"TNF-α, 8-Br-cGMP 10 μM, no CO",suppressed βTC3 apoptosis to an extent similar to that seen with carbon monoxide
"[C-]#[O+] [CO, carbon monoxide]",effect on β-cell apoptosis induced by etoposide or serum starvation,1% CO,suppressed
same,"effect on β-cell apoptosis, CO exposure immediately after TNF-α","1% CO for one hour, tested 24 hours later",sufficient to prevent β-cell apoptosis
same,"effect on β-cell apoptosis, CO exposure after induction of apoptosis","1% CO for one hour, two hours after TNF-α stimulation",still able to suppress β-cell apoptosis
same,effect on TNF-α mediated apoptosis,"1% CO, action of HO-1 suppressed by SnPPIX",suppressed TNF-α mediated apoptosis to a similar extent as HO-1
same,"effect on β-cell apoptosis, pre-incubation with CO","one hour pre-incubation, TNF-α two to three hours after end of CO treatment",prevented β-cell apoptosis
"O=c1onc2cnc3ccccc3n12 [ODQ, 1H[1,2,4]oxadiazolo[4,3-α]quinoxalin-1]",effect on the anti-apoptotic effect of exogenous CO,"TNF-α, 1% CO, ODQ 100 μM, KT5823 1.6 μM",suppressed the anti-apoptotic effect of CO
"C=Cc1c2[n-]c(c1C)/C=c1\[n-]/c(c(C)c1C=C)=C\c1[n-]c(c(CCC(=O)O)c1C)C=c1[n-]/c(c(C)c1CCC(=O)O)=C\2.[Sn+4] [SnPPIX, tin protoporphyrin IX]",anti-apoptotic effect of HO-1 over-expression when HO-1 activity was blocked,"TNF-α, SnPPIX 50 μM",the anti-apoptotic effect was suppressed
